The values that follow come from ChEMBL document CHEMBL4715913, “Discovery of benzo[f]pyrido[4,3-b][1,4]oxazepin-10-one derivatives as orally available bromodomain and extra-terminal domain (BET) inhibitors with efficacy in an in vivo psoriatic animal model” (Bioorg Med Chem, 2021).

Active and inactive are the calls of the source. The calls are words filed in the database; no cut-off is given here. Where only a bound is given, the exact number is not on record here.

Data set [1] relates to PBMC. As to the kind of experiment: Inhibition of MCP-1 production in LPS-induced human PBMC preincubated for 1 hr followed by LPS-stimulation and measured after 20 hrs by magnetic beads technique based assay. The note with it: time 21.0 hrs. It is filed as functional, tissue-based.
Data set [2] addresses T1, Bromodomain testis-specific protein (Homo sapiens, UniProt Q58F21). The data set is described as follows: Binding affinity to human partial length BRDT-BD1 (N21 to E137 residues) expressed in bacterial expression system by BROMOscan method.
The next data set addresses CREB-binding protein (Homo sapiens, UniProt Q92793). As to the kind of experiment: Binding affinity to human partial length CREBBP (R1081 to G1197 residues) expressed in bacterial expression system by BROMOscan method.
For data set [3], the system named is PBMC. As to the kind of experiment: Inhibition of IL-6 production in LPS-induced human PBMC preincubated for 1 hr followed by LPS-stimulation and measured after 20 hrs by magnetic beads technique based assay. The note with it: time 21.0 hrs. It counts as functional, tissue-based.
Data set [4] has as its target T1, Bromodomain testis-specific protein. As to the kind of experiment: Binding affinity to human partial length BRDT-BD2 (K250 to E382 residues) expressed in bacterial expression system by BROMOscan method.
For data set [5], the species on record is Homo sapiens. The data set is described as follows: Selectivity ratio of Kd for binding affinity to human partial length EP300 (A1040 to G1161 residues) expressed in bacterial expression system to Kd for binding affinity to human partial length BRD4-BD2 (K333 to E460 residues) expressed in bacterial expression system.
For data set [6], the system named is Mus musculus. The data set is described as follows: Protection against imiquimod-induced Harlan Balb/c mouse model of psoriasis assessed as decrease in ear thickness at 10 mg/kg, po administered BID for 7 days measured on day 8 by dial gauge micrometer analysis. The note with it: time 7.0 day. It counts as functional, organism-based.
The species named for data set [7] is Homo sapiens. As to the kind of experiment: Selectivity ratio of Kd for binding affinity to human partial length EP300 (A1040 to G1161 residues) expressed in bacterial expression system to Kd for binding affinity to human partial length BRDT-BD2 (K250 to E382 residues) expressed in bacterial expression system.
In data set [8] the target is T2, Mitogen-activated protein kinase 7 (Homo sapiens, UniProt Q13164). As to the kind of experiment: Inhibition of recombinant human ERK5 using myelin basic protein as substrate by [gamm33P]ATP based HotSpot radiometric assay.
Data set [9] concerns the target T3, Bromodomain-containing protein 3 (Homo sapiens, UniProt Q15059). As to the kind of experiment: Binding affinity to human partial length BRD3-BD1 (P24 to E144 residues) expressed in bacterial expression system by BROMOscan method.
Data set [10] is filed under the species Homo sapiens. The data set is described as follows: Selectivity ratio of Kd for binding affinity to human partial length EP300 (A1040 to G1161 residues) expressed in bacterial expression system to Kd for binding affinity to human partial length BRD4-BD1 (N44 to E168 residues) expressed in bacterial expression system.
For data set [11], the species on record is Homo sapiens. As to the kind of experiment: Selectivity ratio of Kd for binding affinity to human partial length EP300 (A1040 to G1161 residues) expressed in bacterial expression system to Kd for binding affinity to human partial length BRD3-BD1 (P24 to E144 residues) expressed in bacterial expression system.
Data set [12] in a line: Toxicity in imiquimod-induced Harlan Balb/c mouse model of psoriasis assessed as effect on body weight at 3 to 30 mg/kg, po BID for 7 days. It is filed as organism-based. Conditions: in vivo, 168 h, dose 3-30 mg/kg, time 7 day.
The species entered for data set [13] is Homo sapiens. The data set is described as follows: Selectivity ratio of Kd for binding affinity to human partial length EP300 (A1040 to G1161 residues) expressed in bacterial expression system to Kd for binding affinity to human partial length BRD3-BD2 (G306 to P416 residues) expressed in bacterial expression system.
In data set [14] the target is T4, Bromodomain-containing protein 4 (Homo sapiens, UniProt O60885). As to the kind of experiment: Inhibition of BRD4-BD1 (unknown origin) by TR-FRET assay.
The species named for data set [15] is Homo sapiens. The data set is described as follows: Selectivity ratio of Kd for binding affinity to human partial length CREBBP (R1081 to G1197 residues) expressed in bacterial expression system to Kd for binding affinity to human partial length BRD2-BD1 (K71 to N194 residues) expressed in bacterial expression system.
For data set [16], the species on record is Homo sapiens. The data set is described as follows: Selectivity ratio of Kd for binding affinity to human partial length CREBBP (R1081 to G1197 residues) expressed in bacterial expression system to Kd for binding affinity to human partial length BRD2-BD2 (E348 to D455 residues) expressed in bacterial expression system.
For data set [17], the species on record is Homo sapiens. As to the kind of experiment: Selectivity ratio of Kd for binding affinity to human partial length CREBBP (R1081 to G1197 residues) expressed in bacterial expression system to Kd for binding affinity to human partial length BRDT-BD1 (N21 to E137 residues) expressed in bacterial expression system.
The species entered for data set [18] is Homo sapiens. As to the kind of experiment: Selectivity ratio of Kd for binding affinity to human partial length CREBBP (R1081 to G1197 residues) expressed in bacterial expression system to Kd for binding affinity to human partial length BRDT-BD2 (K250 to E382 residues) expressed in bacterial expression system.
For data set [19], the species on record is Homo sapiens. As to the kind of experiment: Selectivity ratio of Kd for binding affinity to human partial length EP300 (A1040 to G1161 residues) expressed in bacterial expression system to Kd for binding affinity to human partial length BRD2-BD1 (K71 to N194 residues) expressed in bacterial expression system.
For data set [20], the species on record is Homo sapiens. The data set is described as follows: Selectivity ratio of Kd for binding affinity to human partial length EP300 (A1040 to G1161 residues) expressed in bacterial expression system to Kd for binding affinity to human partial length BRD2-BD2 (E348 to D455 residues) expressed in bacterial expression system.
For data set [21], the species on record is Homo sapiens. As to the kind of experiment: Selectivity ratio of Kd for binding affinity to human partial length EP300 (A1040 to G1161 residues) expressed in bacterial expression system to Kd for binding affinity to human partial length BRDT-BD1 (N21 to E137 residues) expressed in bacterial expression system.
Data set [22] is filed under the species Homo sapiens. As to the kind of experiment: Selectivity ratio of Kd for binding affinity to human partial length CREBBP (R1081 to G1197 residues) expressed in bacterial expression system to Kd for binding affinity to human partial length BRD3-BD1 (P24 to E144 residues) expressed in bacterial expression system.
A short description of data set [23]: Stability of compound in human liver microsomes assessed as parent compound remaining after 1 hr.
Data set [24] deals with Mus musculus. As to the kind of experiment: Protection against imiquimod-induced po dosed Harlan Balb/c mouse model of psoriasis assessed as decrease in ear thickness administered BID for 7 days measured on day 8 by dial gauge micrometer analysis. It counts as functional, organism-based. Conditions: dose 3-30 mg/kg, time 7.0 day.
Data set [25] deals with T4, Bromodomain-containing protein 4. As to the kind of experiment: Binding affinity to human partial length BRD4-BD1 (N44 to E168 residues) expressed in bacterial expression system by BROMOscan method.
Data set [26] shares this target. As to the kind of experiment: Inhibition of BRD4 in human PBMC assessed as reduction in LPS-induced TNFalpha secretion preincubated for 1 hr followed by LPS-stimulation and measured after 20 hrs by magnetic beads technique based assay.
In data set [27] the target is T5, Bromodomain-containing protein 2 (Homo sapiens, UniProt P25440). As to the kind of experiment: Binding affinity to human partial length BRD2-BD2 (E348 to D455 residues) expressed in bacterial expression system by BROMOscan method.
Data set [28] deals with T6, Voltage-gated inwardly rectifying potassium channel KCNH2 (Homo sapiens, UniProt Q12809). As to the kind of experiment: Inhibition of human ERG stably expressed in CHO cells at holding potential of -80 mV incubated for 12 mins.
Data set [29] addresses T4, Bromodomain-containing protein 4. As to the kind of experiment: Binding affinity to human partial length BRD4-BD2 (K333 to E460 residues) expressed in bacterial expression system by BROMOscan method.
The species entered for data set [30] is Homo sapiens. The data set is described as follows: Selectivity ratio of Kd for binding affinity to human partial length CREBBP (R1081 to G1197 residues) expressed in bacterial expression system to Kd for binding affinity to human partial length BRD4-BD2 (K333 to E460 residues) expressed in bacterial expression system.
Data set [31] addresses Histone acetyltransferase p300 (Homo sapiens, UniProt Q09472). The data set is described as follows: Binding affinity to human partial length EP300 (A1040 to G1161 residues) expressed in bacterial expression system by BROMOscan method.
Data set [32] has as its target T3, Bromodomain-containing protein 3. As to the kind of experiment: Binding affinity to human partial length BRD3-BD2 (G306 to P416 residues) expressed in bacterial expression system by BROMOscan method.
The species entered for data set [33] is Homo sapiens. The data set is described as follows: Selectivity ratio of Kd for binding affinity to human partial length CREBBP (R1081 to G1197 residues) expressed in bacterial expression system to Kd for binding affinity to human partial length BRD4-BD1 (N44 to E168 residues) expressed in bacterial expression system.
For data set [34], the species on record is Homo sapiens. As to the kind of experiment: Selectivity ratio of Kd for binding affinity to human partial length CREBBP (R1081 to G1197 residues) expressed in bacterial expression system to Kd for binding affinity to human partial length BRD3-BD2 (G306 to P416 residues) expressed in bacterial expression system.
In data set [35] the target is T5, Bromodomain-containing protein 2. The data set is described as follows: Binding affinity to human partial length BRD2-BD1 (K71 to N194 residues) expressed in bacterial expression system by BROMOscan method.
The nature of data set [36]: Toxicity in imiquimod-induced Harlan Balb/c mouse model of psoriasis assessed as effect on body weight at 10 mg/kg, po BID for 7 days. Conditions: in vivo, 168 h, time 7 day. It counts as organism-based.
Data set [37] deals with T4, Bromodomain-containing protein 4. As to the kind of experiment: Binding affinity to BRD4-BD1 (unknown origin).
In data set [38] the target is T2, Mitogen-activated protein kinase 7. The data set is described as follows: Inhibition of ERK5 (unknown origin).
The target in data set [39] is T6, Voltage-gated inwardly rectifying potassium channel KCNH2. The data set is described as follows: Inhibition of human ERG.
Data set [40] is described as follows: Dissociation constant, pKa of compound. It counts as physicochemical.
The target of data set [41] is T4, Bromodomain-containing protein 4. As to the kind of experiment: Inhibition of BRD4-BD1 (unknown origin).

Sequence of CREB-binding protein (Q92793 whole entry, the tested form may be a part): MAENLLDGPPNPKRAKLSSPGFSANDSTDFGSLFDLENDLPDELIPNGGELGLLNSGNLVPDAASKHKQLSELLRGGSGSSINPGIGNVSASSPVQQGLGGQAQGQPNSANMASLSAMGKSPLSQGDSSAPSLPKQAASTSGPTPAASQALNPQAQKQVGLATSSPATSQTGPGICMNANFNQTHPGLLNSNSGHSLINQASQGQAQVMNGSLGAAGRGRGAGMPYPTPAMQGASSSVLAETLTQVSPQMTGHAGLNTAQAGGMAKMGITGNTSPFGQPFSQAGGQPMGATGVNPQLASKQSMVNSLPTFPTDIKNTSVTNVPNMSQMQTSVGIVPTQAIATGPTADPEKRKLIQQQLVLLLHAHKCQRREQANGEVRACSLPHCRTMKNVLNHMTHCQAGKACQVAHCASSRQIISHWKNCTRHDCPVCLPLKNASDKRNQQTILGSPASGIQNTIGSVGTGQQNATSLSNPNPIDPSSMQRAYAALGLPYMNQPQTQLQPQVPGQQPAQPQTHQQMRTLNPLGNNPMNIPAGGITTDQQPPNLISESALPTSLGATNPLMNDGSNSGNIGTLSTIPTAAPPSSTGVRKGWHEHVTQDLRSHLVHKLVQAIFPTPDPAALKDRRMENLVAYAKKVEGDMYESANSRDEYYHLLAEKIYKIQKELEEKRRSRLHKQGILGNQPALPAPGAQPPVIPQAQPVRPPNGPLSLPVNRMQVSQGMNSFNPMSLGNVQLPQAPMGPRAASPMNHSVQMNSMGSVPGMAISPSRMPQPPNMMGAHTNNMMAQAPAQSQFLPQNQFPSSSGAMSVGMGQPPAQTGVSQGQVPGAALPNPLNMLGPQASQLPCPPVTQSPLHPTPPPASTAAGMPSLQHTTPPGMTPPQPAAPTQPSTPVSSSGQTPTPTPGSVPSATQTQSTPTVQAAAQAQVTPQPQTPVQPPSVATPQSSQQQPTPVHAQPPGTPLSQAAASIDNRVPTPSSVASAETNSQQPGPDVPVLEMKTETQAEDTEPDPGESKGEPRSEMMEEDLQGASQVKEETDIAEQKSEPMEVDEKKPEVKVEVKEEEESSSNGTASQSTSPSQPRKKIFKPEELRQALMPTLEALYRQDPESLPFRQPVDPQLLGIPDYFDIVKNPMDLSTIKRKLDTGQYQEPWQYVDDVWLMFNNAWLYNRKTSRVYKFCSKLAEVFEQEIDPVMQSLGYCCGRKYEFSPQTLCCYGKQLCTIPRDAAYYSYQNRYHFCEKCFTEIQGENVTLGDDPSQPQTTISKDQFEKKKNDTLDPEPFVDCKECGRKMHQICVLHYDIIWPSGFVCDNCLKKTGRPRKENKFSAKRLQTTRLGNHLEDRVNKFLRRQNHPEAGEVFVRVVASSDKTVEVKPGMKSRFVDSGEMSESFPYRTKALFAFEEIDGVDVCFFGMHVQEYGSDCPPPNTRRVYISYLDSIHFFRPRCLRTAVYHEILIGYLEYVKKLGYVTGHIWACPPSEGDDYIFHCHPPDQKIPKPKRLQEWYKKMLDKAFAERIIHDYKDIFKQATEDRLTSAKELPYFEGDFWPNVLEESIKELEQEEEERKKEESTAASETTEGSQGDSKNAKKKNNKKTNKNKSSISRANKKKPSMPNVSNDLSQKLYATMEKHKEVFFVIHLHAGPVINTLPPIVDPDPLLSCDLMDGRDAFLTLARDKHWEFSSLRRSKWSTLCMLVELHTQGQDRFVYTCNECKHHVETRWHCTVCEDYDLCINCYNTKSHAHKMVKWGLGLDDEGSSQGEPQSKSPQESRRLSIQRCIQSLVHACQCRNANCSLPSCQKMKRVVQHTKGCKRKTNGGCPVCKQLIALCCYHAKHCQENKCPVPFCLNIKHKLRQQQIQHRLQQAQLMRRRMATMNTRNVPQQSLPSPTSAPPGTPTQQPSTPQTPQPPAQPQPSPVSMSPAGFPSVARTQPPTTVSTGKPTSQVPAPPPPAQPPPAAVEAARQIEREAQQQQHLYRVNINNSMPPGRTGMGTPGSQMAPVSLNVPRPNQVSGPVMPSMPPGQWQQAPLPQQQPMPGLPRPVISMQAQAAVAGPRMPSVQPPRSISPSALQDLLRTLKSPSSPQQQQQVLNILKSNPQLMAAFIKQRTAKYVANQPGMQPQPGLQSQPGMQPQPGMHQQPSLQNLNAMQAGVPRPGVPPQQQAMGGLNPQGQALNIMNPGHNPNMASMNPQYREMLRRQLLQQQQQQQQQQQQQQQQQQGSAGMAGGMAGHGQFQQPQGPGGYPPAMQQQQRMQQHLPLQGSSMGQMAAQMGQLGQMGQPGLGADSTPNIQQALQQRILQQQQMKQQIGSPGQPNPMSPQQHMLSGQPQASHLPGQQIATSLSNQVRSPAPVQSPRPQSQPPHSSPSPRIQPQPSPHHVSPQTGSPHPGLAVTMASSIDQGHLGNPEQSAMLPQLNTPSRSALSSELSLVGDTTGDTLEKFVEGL
T2 sequence (Q13164 whole entry, the tested form may be a part): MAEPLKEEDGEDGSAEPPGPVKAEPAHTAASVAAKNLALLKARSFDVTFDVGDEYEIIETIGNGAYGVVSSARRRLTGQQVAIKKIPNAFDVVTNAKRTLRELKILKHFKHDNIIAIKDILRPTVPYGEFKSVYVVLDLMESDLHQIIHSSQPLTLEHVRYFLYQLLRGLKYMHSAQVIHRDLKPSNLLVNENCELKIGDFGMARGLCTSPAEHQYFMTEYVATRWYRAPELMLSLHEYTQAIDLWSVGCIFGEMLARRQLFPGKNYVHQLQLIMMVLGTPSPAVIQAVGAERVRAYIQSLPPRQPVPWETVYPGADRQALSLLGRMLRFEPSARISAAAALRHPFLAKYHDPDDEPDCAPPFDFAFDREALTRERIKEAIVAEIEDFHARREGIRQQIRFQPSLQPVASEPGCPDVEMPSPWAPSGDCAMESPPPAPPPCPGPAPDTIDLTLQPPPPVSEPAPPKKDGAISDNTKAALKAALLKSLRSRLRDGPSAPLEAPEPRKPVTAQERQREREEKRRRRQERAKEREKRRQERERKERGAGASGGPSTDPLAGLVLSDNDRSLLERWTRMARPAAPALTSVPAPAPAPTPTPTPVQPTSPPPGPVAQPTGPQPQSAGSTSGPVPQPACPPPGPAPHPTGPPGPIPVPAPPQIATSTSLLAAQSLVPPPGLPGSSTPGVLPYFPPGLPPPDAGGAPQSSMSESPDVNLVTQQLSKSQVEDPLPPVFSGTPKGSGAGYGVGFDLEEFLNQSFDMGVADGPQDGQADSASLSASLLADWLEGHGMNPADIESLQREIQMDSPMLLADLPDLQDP
T3 sequence (Q15059 whole entry, the tested form may be a part): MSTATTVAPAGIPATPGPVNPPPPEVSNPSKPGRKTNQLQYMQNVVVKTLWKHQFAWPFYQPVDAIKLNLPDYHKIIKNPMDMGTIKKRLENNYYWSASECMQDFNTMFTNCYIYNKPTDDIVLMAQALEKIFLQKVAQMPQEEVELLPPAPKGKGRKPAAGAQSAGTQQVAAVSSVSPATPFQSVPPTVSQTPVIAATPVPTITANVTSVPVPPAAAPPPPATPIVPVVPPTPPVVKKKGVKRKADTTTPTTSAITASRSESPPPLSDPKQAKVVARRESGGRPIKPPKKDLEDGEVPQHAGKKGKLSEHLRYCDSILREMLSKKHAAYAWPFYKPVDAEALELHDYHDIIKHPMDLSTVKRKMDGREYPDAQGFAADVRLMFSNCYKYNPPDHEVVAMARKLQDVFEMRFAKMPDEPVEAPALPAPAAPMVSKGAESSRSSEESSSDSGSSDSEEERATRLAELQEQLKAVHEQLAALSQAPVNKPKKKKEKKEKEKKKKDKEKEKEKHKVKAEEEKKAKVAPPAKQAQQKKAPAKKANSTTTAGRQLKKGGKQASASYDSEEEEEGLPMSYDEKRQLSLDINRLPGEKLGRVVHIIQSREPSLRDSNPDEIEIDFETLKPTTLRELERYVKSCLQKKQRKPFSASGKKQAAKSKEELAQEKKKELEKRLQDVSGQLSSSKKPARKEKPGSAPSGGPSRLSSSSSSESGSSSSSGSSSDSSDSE
T6 sequence (Q12809 whole entry, the tested form may be a part): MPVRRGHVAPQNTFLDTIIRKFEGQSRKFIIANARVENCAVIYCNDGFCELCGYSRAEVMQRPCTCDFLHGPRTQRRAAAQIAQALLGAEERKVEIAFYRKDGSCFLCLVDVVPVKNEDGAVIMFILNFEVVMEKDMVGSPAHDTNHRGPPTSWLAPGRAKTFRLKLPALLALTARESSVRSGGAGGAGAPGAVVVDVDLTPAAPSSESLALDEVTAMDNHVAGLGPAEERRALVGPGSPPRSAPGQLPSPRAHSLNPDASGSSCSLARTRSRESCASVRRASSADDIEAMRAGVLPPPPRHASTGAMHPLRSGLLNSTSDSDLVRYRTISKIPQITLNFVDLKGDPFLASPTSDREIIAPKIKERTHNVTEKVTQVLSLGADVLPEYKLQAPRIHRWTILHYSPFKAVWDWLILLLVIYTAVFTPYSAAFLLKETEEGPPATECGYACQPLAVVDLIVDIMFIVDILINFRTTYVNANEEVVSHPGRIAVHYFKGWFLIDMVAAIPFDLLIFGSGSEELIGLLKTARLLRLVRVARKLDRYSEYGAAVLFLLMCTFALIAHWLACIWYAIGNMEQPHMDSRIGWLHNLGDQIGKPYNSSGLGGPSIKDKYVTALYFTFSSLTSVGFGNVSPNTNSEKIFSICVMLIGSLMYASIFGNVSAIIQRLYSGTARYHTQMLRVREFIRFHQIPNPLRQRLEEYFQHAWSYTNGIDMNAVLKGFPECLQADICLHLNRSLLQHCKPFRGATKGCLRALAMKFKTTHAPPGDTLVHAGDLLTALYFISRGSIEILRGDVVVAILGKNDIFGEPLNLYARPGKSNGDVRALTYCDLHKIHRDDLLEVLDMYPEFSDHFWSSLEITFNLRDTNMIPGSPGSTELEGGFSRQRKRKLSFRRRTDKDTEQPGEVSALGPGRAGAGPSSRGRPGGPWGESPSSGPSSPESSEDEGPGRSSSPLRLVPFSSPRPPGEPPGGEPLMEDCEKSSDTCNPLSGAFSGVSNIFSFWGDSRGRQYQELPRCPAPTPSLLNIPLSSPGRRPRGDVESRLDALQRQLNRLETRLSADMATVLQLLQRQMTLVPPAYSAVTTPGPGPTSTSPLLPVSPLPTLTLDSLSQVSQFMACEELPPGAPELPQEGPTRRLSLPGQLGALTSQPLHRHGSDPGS

`CCNC(=O)C[C@@H]1N=C(c2ccc(Cl)cc2)c2cc(OC)ccc2-n2c(C)nnc21` [MOLIBRESIB]: the inhibition result in the data set with PBMC [1] and with PBMC [3] was “Active” in each case. Further, the Kd in data set [2] was found to be 112 nM; at CREB-binding protein it was 83 µM; in data set [4], 60 nM.

As to `CN1C(=O)c2c(F)cccc2Oc2cc(N[C@H]3CC[C@H](O)CC3)ncc21`, the Selectivity ratio in the data set filed under Homo sapiens [5], in the data set filed under Homo sapiens [7], in the data set filed under Homo sapiens [10], in the data set filed under Homo sapiens [11], in the data set filed under Homo sapiens [13] and in the data set filed under Homo sapiens [15] was 20 throughout. Besides, the Selectivity ratio in the data set filed under Homo sapiens [16], in the data set listed under Homo sapiens [17], in the data set listed under Homo sapiens [18], in the data set filed under Homo sapiens [19], in the data set filed under Homo sapiens [20] and in the data set listed under Homo sapiens [21] was 20 each time. The Selectivity ratio in the data set listed under Homo sapiens [22], in the data set filed under Homo sapiens [30], in the data set filed under Homo sapiens [33] and in the data set filed under Homo sapiens [34] was 20 in each case. In the data set on Mus musculus [6], the outcome was Active. Moreover, the 50% inhibitory concentration (IC50) is 131 nM in data set [8], 1270 nM in [14] and over 10 µM in data set [28]. The Kd stood at 52 nM in data set [9]; 170 nM in [2]; 1.9 µM on CREB-binding protein; 78 nM in [25]; 160 nM in [27]; 72 nM in data set [29]. In addition, the Kd in data set [31] was 1200 nM; in data set [32], 140 nM; in data set [4] it was 220 nM; in [35] it was 71 nM. Moreover, the inhibition result in the data set with PBMC [1] and in the data set on PBMC [3] was “Active” throughout. For the same molecule, the Activity entry was “Non-Toxic” in data set [12] and “Dose-dependent effect” with Mus musculus [24]. Besides, the share remaining at 1 h in data set [23] is 100%. In addition, in data set [26], the EC50 was determined as 440 nM.

In the case of `CCOc1cc([C@@H](CS(C)(=O)=O)N2C(=O)c3cccc(NC(C)=O)c3C2=O)ccc1OC`, the result in the data set on Mus musculus [6] was Active. Further, the Activity entry in data set [36] is recorded as “Non-Toxic”.

Turning to `CCOc1cc(C(=O)N2CCC(N3CCCC3)CC2)ccc1Nc1cc2c(cn1)N(C)C(=O)c1ccccc1N2C`, the inhibition result in the data set on PBMC [1] and in the data set with PBMC [3] was “Active” each time. The molecule further yielded a Kd in data set [37] of 22 nM. The IC50 was 11 nM in data set [38], 320 nM in [39] and 1290 nM in [41]. This molecule also gave a pKa in data set [40] of 9.7.
